# Target: T1, GII.17 Kawasaki 308 variant VLP (E12905) (Norovirus GII.17, UniProt A0A0S2ZZA3)
# T1 construct: gene VP1
# Conditions: ligand as BSA conjugate (about 20 per BSA, multivalent), immobilized; VLP 2 ng/ul; HBS pH 7.4, 25 C; also ELISA (Figure 4A)
smiles,measurement,value
CC(=O)N[C@H]1[C@H](O[C@H]2[C@@H](O)[C@@H](CO)O[C@@H](O[C@H]3[C@H](O)[C@@H](O)C(O)O[C@@H]3CO)[C@@H]2O)O[C@H](CO)[C@@H](O)[C@@H]1O[C@@H]1O[C@H](CO)[C@H](O)[C@H](O)[C@H]1O[C@@H]1O[C@@H](C)[C@@H](O)[C@@H](O)[C@@H]1O (stereo partly shown) [lacto-N-fucopentaose I],GII.17 variant / Kawasaki 308,255 RU
